According to ChEMBL document CHEMBL1221402, “Bioactivity-guided isolation of 1,2,3,4,6-Penta-O-galloyl-D-glucopyranose from Paeonia lactiflora roots as a PTP1B inhibitor” (J Nat Prod, 2010):
pIC50: −log10 of the molar value. Calls of active or inactive are those of the source. No cut-off for these calls is given here.

Key:
[1] = target: T1, Tyrosine-protein phosphatase non-receptor type 1 (Homo sapiens, UniProt P18031); assay: Inhibition of human recombinant PTP1B
T1 sequence (P18031 whole entry): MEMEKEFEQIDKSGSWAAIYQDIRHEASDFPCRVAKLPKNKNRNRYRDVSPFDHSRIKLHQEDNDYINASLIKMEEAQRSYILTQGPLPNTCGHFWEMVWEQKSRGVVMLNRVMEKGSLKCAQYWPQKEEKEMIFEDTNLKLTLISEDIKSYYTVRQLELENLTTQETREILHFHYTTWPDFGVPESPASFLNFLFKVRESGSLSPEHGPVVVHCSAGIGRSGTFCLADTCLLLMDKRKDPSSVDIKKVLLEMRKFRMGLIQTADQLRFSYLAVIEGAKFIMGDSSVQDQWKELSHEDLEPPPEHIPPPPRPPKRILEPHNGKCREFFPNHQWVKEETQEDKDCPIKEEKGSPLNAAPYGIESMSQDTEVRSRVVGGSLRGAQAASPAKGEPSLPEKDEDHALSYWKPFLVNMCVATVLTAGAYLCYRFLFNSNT

[2] = target: Insulin receptor (Homo sapiens) (UniProt P06213); assay: Induction of IR phosphorylation in insulin-stimulated starved human HCC-1.2 cells at 10 uM pretreated 2 hrs before insulin challenge by Western blot analysis
Sequence of Insulin receptor (Homo sapiens) (P06213 28-758 limits assumed): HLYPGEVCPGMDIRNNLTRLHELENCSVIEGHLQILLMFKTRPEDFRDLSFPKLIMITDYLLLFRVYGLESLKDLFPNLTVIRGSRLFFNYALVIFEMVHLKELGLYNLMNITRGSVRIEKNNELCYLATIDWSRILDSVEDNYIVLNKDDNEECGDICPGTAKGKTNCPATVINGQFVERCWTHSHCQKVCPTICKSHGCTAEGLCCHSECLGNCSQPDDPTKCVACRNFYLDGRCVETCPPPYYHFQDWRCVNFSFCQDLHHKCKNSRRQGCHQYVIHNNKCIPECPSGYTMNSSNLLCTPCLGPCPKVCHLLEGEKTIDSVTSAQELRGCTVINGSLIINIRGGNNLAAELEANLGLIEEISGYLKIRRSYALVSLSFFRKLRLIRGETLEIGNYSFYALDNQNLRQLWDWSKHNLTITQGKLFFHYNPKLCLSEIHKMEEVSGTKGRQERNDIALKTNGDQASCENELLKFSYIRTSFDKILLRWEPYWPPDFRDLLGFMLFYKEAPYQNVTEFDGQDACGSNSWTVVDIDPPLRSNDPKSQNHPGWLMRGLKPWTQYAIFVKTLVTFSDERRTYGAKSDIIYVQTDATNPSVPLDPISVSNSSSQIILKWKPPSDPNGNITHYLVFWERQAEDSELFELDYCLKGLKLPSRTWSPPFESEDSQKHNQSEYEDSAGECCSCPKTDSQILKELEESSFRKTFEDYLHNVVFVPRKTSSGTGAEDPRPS
Sequence of Insulin receptor (Homo sapiens) (P06213 763-1382 limits assumed): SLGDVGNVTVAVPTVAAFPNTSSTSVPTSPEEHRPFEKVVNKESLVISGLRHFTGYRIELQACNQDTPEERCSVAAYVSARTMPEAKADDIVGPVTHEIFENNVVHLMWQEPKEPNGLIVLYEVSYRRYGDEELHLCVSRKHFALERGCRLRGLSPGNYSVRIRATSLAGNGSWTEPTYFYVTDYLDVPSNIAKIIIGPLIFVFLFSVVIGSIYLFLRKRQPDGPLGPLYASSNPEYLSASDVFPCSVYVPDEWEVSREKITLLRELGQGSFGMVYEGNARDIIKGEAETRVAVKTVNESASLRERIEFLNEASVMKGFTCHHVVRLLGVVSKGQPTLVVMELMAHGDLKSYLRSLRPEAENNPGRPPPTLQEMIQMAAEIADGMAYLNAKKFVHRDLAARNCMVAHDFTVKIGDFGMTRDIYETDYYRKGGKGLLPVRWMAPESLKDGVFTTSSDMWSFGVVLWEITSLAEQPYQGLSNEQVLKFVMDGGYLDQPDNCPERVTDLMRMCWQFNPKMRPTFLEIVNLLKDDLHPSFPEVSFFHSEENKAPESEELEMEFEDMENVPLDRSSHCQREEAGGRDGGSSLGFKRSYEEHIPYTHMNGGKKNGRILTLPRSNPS

[3] = target: T2, Tyrosine-protein phosphatase non-receptor type 2 (Homo sapiens, UniProt P17706); assay: Inhibition of TCPTP
T2 sequence (P17706 whole entry): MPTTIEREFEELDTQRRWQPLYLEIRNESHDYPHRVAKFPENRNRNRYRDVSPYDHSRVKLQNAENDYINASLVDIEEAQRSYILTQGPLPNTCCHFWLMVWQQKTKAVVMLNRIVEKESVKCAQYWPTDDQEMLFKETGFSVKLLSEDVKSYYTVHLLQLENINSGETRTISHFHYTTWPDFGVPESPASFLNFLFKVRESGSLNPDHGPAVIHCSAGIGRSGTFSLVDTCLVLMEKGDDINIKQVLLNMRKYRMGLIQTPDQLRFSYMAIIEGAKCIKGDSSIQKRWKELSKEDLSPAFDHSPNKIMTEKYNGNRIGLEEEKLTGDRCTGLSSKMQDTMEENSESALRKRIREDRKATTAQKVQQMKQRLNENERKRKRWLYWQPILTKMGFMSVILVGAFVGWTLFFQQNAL

[4] = target: Receptor-type tyrosine-protein phosphatase F (Homo sapiens) (UniProt P10586); assay: Inhibition of LAR at <50 uM
Sequence of Receptor-type tyrosine-protein phosphatase F (Homo sapiens) (P10586 whole entry): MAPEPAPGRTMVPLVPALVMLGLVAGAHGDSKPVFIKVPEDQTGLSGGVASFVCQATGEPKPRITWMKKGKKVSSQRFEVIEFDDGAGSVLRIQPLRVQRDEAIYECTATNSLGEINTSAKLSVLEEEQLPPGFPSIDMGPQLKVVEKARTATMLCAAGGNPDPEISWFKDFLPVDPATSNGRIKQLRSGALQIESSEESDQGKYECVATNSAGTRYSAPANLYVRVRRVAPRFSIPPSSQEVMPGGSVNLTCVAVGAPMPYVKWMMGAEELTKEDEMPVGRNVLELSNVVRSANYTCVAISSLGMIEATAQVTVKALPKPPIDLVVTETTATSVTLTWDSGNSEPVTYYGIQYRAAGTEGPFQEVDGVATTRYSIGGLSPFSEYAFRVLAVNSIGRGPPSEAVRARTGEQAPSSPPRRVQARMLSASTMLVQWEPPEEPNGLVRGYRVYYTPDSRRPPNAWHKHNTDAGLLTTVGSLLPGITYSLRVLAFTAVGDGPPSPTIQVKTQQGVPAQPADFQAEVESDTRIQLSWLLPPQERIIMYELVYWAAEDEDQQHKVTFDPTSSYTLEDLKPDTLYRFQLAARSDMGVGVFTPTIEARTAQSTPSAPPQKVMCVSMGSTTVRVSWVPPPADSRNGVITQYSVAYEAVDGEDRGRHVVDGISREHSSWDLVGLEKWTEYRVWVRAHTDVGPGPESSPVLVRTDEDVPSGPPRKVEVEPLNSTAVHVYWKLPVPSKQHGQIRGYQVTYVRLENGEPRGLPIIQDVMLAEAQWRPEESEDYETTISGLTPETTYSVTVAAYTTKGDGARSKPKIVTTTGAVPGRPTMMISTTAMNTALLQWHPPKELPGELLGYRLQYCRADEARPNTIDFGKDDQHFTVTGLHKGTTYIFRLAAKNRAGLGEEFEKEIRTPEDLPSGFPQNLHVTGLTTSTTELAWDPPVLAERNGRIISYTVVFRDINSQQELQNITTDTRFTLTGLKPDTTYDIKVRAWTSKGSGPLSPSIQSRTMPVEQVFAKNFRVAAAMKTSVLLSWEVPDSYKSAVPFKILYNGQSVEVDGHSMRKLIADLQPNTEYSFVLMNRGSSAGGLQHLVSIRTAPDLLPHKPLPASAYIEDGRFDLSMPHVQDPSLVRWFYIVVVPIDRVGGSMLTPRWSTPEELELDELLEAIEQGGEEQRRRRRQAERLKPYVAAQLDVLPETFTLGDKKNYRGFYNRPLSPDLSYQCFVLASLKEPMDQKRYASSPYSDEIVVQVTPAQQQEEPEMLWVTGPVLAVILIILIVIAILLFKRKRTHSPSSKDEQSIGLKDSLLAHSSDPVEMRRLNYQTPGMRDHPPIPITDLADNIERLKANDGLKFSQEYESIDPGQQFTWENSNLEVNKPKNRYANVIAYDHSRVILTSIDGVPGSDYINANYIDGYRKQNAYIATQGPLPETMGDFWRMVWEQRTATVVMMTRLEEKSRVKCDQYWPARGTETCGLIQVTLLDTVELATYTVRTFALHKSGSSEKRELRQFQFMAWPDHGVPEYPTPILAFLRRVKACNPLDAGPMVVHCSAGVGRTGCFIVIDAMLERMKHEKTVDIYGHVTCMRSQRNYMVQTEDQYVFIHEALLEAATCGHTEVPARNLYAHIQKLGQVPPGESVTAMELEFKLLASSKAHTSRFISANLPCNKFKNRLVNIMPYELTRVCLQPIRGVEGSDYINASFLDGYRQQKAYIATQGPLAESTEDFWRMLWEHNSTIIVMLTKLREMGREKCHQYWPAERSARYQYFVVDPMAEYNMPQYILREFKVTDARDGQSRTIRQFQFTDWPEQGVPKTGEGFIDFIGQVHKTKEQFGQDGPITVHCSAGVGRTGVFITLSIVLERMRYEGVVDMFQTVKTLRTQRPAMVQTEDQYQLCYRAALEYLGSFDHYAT

[5] = target: T3, Tyrosine-protein phosphatase non-receptor type 11 (Homo sapiens) (UniProt Q06124); assay: Inhibition of SHP-2 at <50 uM
T3 sequence (whole entry): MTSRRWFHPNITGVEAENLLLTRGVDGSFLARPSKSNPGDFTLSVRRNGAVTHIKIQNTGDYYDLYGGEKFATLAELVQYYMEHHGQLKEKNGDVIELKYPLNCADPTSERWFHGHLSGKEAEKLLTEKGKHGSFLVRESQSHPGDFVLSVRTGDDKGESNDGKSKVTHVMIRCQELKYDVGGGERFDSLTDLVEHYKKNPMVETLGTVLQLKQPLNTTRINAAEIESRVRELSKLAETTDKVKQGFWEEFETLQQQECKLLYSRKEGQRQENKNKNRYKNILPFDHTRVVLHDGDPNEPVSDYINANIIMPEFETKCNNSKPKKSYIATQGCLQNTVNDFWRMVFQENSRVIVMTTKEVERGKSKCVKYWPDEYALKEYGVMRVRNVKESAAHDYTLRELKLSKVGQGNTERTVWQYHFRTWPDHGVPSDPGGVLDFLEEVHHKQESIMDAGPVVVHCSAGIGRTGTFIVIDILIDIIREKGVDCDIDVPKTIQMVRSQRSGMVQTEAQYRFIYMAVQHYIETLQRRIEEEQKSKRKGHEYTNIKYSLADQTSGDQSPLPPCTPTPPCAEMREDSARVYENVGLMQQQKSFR

O=C(OC[C@H]1O[C@H](OC(=O)c2cc(O)c(O)c(O)c2)[C@H](OC(=O)c2cc(O)c(O)c(O)c2)[C@@H](OC(=O)c2cc(O)c(O)c(O)c2)[C@@H]1OC(=O)c1cc(O)c(O)c(O)c1)c1cc(O)c(O)c(O)c1
pIC50 [1]: 5.32
Activity [2]: Active
pIC50 [3]: 7.15
inhibition [4]: inactive
inhibition [5]: inactive
